The text below walks through data of patent publication US20180099931A1 (AbbVie S.à.r.l., priority 2016, published 2018).

A word on the EC50: it is the concentration giving half of the maximal effect.

Molecules are shown by their SMILES. Read-outs that look alike come from different tables or passages of the source.

The target in this assay is T1, F508delCFTR (Homo sapiens, UniProt P13569, DEL508-508).
T1 construct: expressed in transfected cells; host or cells: CFBE41o- human lung-derived epithelial cells (CFBE4lo-F508delCFTR-HRP), doxycycline-inducible
T1 sequence (P13569 with tags, fused parts or gaps DEL508-508): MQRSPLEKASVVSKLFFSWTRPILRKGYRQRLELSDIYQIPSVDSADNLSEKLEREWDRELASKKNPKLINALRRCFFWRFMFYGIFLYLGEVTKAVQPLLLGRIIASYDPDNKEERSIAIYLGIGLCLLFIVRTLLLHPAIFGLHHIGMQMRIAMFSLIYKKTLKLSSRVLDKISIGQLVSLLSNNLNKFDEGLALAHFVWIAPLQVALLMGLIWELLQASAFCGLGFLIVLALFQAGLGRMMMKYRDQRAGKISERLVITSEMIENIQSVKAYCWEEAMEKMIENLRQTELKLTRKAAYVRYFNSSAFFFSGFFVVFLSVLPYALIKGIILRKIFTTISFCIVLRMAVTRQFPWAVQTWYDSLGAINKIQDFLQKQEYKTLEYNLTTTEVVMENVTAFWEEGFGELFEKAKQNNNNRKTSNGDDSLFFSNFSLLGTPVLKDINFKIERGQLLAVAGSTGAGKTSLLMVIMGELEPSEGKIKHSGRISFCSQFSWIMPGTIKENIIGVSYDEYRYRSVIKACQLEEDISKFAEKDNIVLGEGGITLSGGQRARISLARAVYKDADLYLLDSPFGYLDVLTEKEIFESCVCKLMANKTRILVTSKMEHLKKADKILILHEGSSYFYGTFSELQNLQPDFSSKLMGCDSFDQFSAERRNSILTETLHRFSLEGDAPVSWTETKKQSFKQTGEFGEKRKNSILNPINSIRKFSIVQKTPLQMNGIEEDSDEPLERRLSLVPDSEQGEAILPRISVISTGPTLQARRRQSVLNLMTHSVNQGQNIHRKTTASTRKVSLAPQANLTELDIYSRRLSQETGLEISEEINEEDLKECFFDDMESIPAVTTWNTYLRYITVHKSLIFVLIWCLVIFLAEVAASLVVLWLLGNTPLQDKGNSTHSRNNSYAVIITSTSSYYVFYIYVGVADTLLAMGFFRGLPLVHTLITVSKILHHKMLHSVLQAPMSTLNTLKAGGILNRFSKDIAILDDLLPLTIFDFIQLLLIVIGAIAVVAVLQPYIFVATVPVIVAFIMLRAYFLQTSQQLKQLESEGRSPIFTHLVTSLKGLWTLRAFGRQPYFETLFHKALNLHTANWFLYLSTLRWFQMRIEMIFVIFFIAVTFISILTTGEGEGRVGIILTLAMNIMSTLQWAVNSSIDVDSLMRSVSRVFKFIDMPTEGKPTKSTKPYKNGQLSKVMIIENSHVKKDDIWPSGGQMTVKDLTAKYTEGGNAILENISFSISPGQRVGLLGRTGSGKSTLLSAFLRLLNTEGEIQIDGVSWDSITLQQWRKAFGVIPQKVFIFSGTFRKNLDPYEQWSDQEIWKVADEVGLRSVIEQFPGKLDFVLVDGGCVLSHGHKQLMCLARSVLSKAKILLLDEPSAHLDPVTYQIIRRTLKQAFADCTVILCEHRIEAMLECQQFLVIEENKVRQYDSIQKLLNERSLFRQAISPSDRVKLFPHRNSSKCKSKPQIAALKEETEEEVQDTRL
Briefly: Cell Surface Expression-Horse Radish Peroxidase (CSE-HRP) Assay.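 For Maximum % activity (with co-corrector): co-corrector and positive control are both the same reference corrector at 2 µM.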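 For Maximum % activity (without co-corrector): percent of the 2 µM on-plate positive control corrector response above DMSO.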 It counts as cell-based. The following applies: CSE-HRP; for Maximum % activity (with co-corrector): with co-corrector (2 μM); for Maximum % activity (with co-corrector) / Emax: maximum at any tested concentration, normalized to on-plate positive control; for Emax: without co-corrector, read-out: Maximum % activity (without co-corrector).

The mark [1] stands for this setting: test compound without co-corrector, read-out: EC50 (without co-corrector).
Where [2] appears, read: with co-corrector (2 μM of 3-[(2R,4R)-4-({[1-(2,2-difluoro-1,3-benzodioxol-5-yl)cyclopropyl]carbonyl}amino)-7-methoxy-3,4-dihydro-2H-chromen-2-yl]benzoic acid), read-out: EC50 (with co-corrector).

In the case of `COc1ccc(C(C)(C)C)cc1CN[C@H]1[C@H](C(C)(C)C)[C@@H](C(=O)O)N(C(=O)Cc2cccc(C)c2)[C@H]1c1ccccc1` [II-203], the “Maximum % activity (with co-corrector)” value is given as “+++ (≥350)” and the Emax lay within 100 to 200%. In addition, under setting [1], the concentration giving a half-maximal response (EC50) lay in the range of 1000 to 10000 nM. For the same compound, the EC50 under setting [2] is under 1000 nM.
The corresponding values for `COc1ccc(C(C)(C)C)cc1CN[C@H]1[C@H](C(C)(C)C)[C@@H](C(=O)O)N(C(=O)Cc2ccc(C)cc2)[C@H]1c1ccccc1` [II-204] are “+++ (≥350)”, 100 to 200%, under 1000 nM and under 1000 nM.
For `COc1ccc(C(C)(C)C)cc1CN[C@H]1[C@H](C(C)(C)C)[C@@H](C(=O)O)N(C(=O)Cc2ccccc2C)[C@H]1c1ccccc1` [II-205], in that order: “+++ (≥350)”, over 200%, under 1000 nM and under 1000 nM.
Consider `COc1ccc(C(C)(C)C)cc1CN[C@H]1[C@H](C(C)(C)C)[C@@H](C(=O)O)N(C(=O)Cc2ccccc2F)[C@H]1c1ccccc1` [II-206], for which the “Maximum % activity (with co-corrector)” value was “+++ (≥350)” and the Emax is over 200%. Moreover, the EC50 under setting [1] was under 1000 nM. Under setting [2], the EC50 was under 1000 nM.
In the case of `COc1ccc(C(C)(C)C)cc1CN[C@H]1[C@H](C(C)(C)C)[C@@H](C(=O)O)N(C(=O)c2c(OC)cnn2C)[C@H]1c1ccccc1` [II-207], the “Maximum % activity (with co-corrector)” value was “+++ (≥350)” and the Emax lay within 100 to 200%. The 50% effective concentration (EC50) under setting [1] was in the range of 1000 to 10000 nM. Besides, the EC50 under setting [2] was in the range of 1000 to 10000 nM.
`COc1ccc(C(C)(C)C)cc1CN[C@H]1[C@H](C(C)(C)C)[C@@H](C(=O)O)N(C(=O)Cc2cc(C)sc2C)[C@H]1c1ccccc1` [II-208]: the “Maximum % activity (with co-corrector)” value was “+++ (≥350)” and the Emax is over 200%. Further, the concentration giving a half-maximal response (EC50) under setting [1] was in the range of 1000 to 10000 nM. Further, under setting [2], the EC50 is under 1000 nM.
The corresponding values for `COc1ccc(C(C)(C)C)cc1CN[C@H]1[C@H](C(C)(C)C)[C@@H](C(=O)O)N(C(=O)CN2CCOCC2)[C@H]1c1ccccc1` [II-209] are “+++ (≥350)”, 100 to 200%, 1000 to 10000 nM and 1000 to 10000 nM.
The corresponding values for `COc1ccc(C(C)(C)C)cc1CN[C@H]1[C@H](C(C)(C)C)[C@@H](C(=O)O)N(C(=O)CC2(O)CCCCC2)[C@H]1c1ccccc1` [II-210] are “+++ (≥350)”, over 200%, 1000 to 10000 nM and 1000 to 10000 nM.
In the case of `COc1ccc(C(C)(C)C)cc1CN[C@H]1[C@H](C(C)(C)C)[C@@H](C(=O)O)N(C(=O)C2CC3C=CC2C3)[C@H]1c1ccccc1` (some centres unmarked) [II-211], the “Maximum % activity (with co-corrector)” value is “+++ (≥350)” and the Emax is over 200%. Under setting [1], the EC50 lay within 1000 to 10000 nM. Besides, the 50% effective concentration (EC50) under setting [2] fell in the range of 1000 to 10000 nM.
As to `COc1ccc(C(C)(C)C)cc1CN[C@H]1[C@H](C(C)(C)C)[C@@H](C(=O)O)N(C(=O)CC2C=CCCC2)[C@H]1c1ccccc1` (some centres unmarked) [II-212], the “Maximum % activity (with co-corrector)” value was “+++ (≥350)” and the Emax was over 200%. For the same compound, the EC50 under setting [1] was 1000 to 10000 nM. In addition, under setting [2], the 50% effective concentration (EC50) was in the range of 1000 to 10000 nM.
As for `COc1ccc(C(C)(C)C)cc1CN[C@H]1[C@H](C(C)(C)C)[C@@H](C(=O)O)N(C(=O)CC2CCOc3ccccc32)[C@H]1c1ccccc1` (some centres unmarked) [II-213], the “Maximum % activity (with co-corrector)” value is recorded as “+++ (≥350)” and the Emax was in the range of 100 to 200%. Under setting [1], the EC50 was 1000 to 10000 nM. In addition, the EC50 under setting [2] lay within 1000 to 10000 nM.
As to `COc1ccc(C(C)(C)C)cc1CN[C@H]1[C@H](C(C)(C)C)[C@@H](C(=O)O)N(C(=O)C2CCC(OC)CC2)[C@H]1c1ccccc1` (some centres unmarked) [II-214], the “Maximum % activity (with co-corrector)” value is “+++ (≥350)” and the Emax was over 200%. Moreover, under setting [1], the EC50 lay within 1000 to 10000 nM. The EC50 under setting [2] fell in the range of 1000 to 10000 nM.
In the case of `COc1ccc(C(C)(C)C)cc1CN[C@H]1[C@H](C(C)(C)C)[C@@H](C(=O)O)N(C(=O)C(C)c2ccccc2)[C@H]1c1ccccc1` (some centres unmarked) [II-215], the “Maximum % activity (with co-corrector)” value is recorded as “+++ (≥350)” and the Emax is over 200%. Besides, the concentration for a half-maximal effect (EC50) under setting [1] lay in the range of 1000 to 10000 nM. Also, the EC50 under setting [2] is under 1000 nM.
For `COc1ccc(C(C)(C)C)cc1CN[C@H]1[C@H](C(C)(C)C)[C@@H](C(=O)O)N(C(=O)C2COC(C(C)C)OC2)[C@H]1c1ccccc1` (some centres unmarked) [II-216], in that order: “+++ (≥350)”, 100 to 200%, 1000 to 10000 nM and 1000 to 10000 nM.
For `COc1ccc(C(C)(C)C)cc1CN[C@H]1[C@H](C(C)(C)C)[C@@H](C(=O)O)N(C(=O)CC2CC(=O)c3ccccc32)[C@H]1c1ccccc1` (some centres unmarked) [II-217], in that order: “+++ (≥350)”, over 200%, 1000 to 10000 nM and under 1000 nM.
For `COc1ccc(C(C)(C)C)cc1CN[C@H]1[C@H](C(C)(C)C)[C@@H](C(=O)O)N(C(=O)CC2CCC(F)(F)C2)[C@H]1c1ccccc1` (some centres unmarked) [II-218], in that order: “+++ (≥350)”, 100 to 200%, 1000 to 10000 nM and 1000 to 10000 nM.
Regarding `COc1ccc(C(C)(C)C)cc1CN[C@H]1[C@H](C(C)(C)C)[C@@H](C(=O)O)N(C(=O)CC2CCCC2(F)F)[C@H]1c1ccccc1` (some centres unmarked) [II-219], the “Maximum % activity (with co-corrector)” value is “+++ (≥350)” and the Emax is over 200%. Moreover, the EC50 under setting [1] lay within 1000 to 10000 nM. Moreover, the EC50 under setting [2] is under 1000 nM.
The corresponding values for `COc1ccc(C(C)(C)C)cc1CN[C@H]1[C@H](C(C)(C)C)[C@@H](C(=O)O)N(C(=O)CC2(C)CCC(F)(F)C2)[C@H]1c1ccccc1` (some centres unmarked) [II-220] are “+++ (≥350)”, 100 to 200%, 1000 to 10000 nM and 1000 to 10000 nM.
Turning to `COc1ccc(C(C)(C)C)cc1CN[C@H]1[C@H](C(C)(C)C)[C@@H](C(=O)O)N(C(=O)Cc2nn(C)c(=O)c3ccccc23)[C@H]1c1ccccc1` [II-221], the “Maximum % activity (with co-corrector)” value is recorded as “+++ (≥350)” and the Emax fell in the range of 100 to 200%. Moreover, the EC50 under setting [1] fell in the range of 1000 to 10000 nM. For the same compound, the 50% effective concentration (EC50) under setting [2] lay in the range of 1000 to 10000 nM.
Regarding `COc1ccc(C(C)(C)C)cc1CN[C@H]1[C@H](C(C)(C)C)[C@@H](C(=O)O)N(C(=O)c2cccc3c2OCC3)[C@H]1c1ccccc1` [II-222], the “Maximum % activity (with co-corrector)” value was “+++ (≥350)” and the Emax fell in the range of 100 to 200%. The EC50 under setting [1] lay within 1000 to 10000 nM. Also, the EC50 under setting [2] is under 1000 nM.
As for `COc1ccc(C(C)(C)C)cc1CN[C@H]1[C@H](C(C)(C)C)[C@@H](C(=O)O)N(C(=O)c2cc(Cl)c(=O)n(C(C)C)c2)[C@H]1c1ccccc1` [II-223], the “Maximum % activity (with co-corrector)” value is “+++ (≥350)” and the Emax is under 100%. Also, under setting [1], the concentration giving a half-maximal response (EC50) was 1000 to 10000 nM. For the same compound, the EC50 under setting [2] was 1000 to 10000 nM.
Take `COc1ccc(C(C)(C)C)cc1CN[C@H]1[C@H](C(C)(C)C)[C@@H](C(=O)O)N(C(=O)c2ccc(Oc3ccccn3)cc2)[C@H]1c1ccccc1` [II-224]: the “Maximum % activity (with co-corrector)” value is recorded as “+++ (≥350)” and the Emax is over 200%. Also, under setting [1], the EC50 lay within 1000 to 10000 nM. In addition, the concentration giving a half-maximal response (EC50) under setting [2] is under 1000 nM.
For `COc1ccc(C(C)(C)C)cc1CN[C@H]1[C@H](C(C)(C)C)[C@@H](C(=O)O)N(C(=O)c2cccc(Cn3cncn3)c2)[C@H]1c1ccccc1` [II-225], in that order: “+++ (≥350)”, 100 to 200%, 1000 to 10000 nM and 1000 to 10000 nM.
Consider `COc1ccc(C(C)(C)C)cc1CN[C@H]1[C@H](C(C)(C)C)[C@@H](C(=O)O)N(C(=O)c2cc(-c3ccccc3)nn2C)[C@H]1c1ccccc1` [II-226], for which the “Maximum % activity (with co-corrector)” value was “+++ (≥350)” and the Emax lay within 100 to 200%. Besides, the EC50 under setting [1] was under 1000 nM. The EC50 under setting [2] was under 1000 nM.
Consider `COc1ccc(C(C)(C)C)cc1CN[C@H]1[C@H](C(C)(C)C)[C@@H](C(=O)O)N(C(=O)c2cc(-c3ccccc3)n(C)n2)[C@H]1c1ccccc1` [II-227], for which the “Maximum % activity (with co-corrector)” value was “+++ (≥350)” and the Emax was over 200%. In addition, the EC50 under setting [1] was 1000 to 10000 nM. For the same compound, the EC50 under setting [2] is under 1000 nM.
For `COc1ccc(C(C)(C)C)cc1CN[C@H]1[C@H](C(C)(C)C)[C@@H](C(=O)O)N(C(=O)c2cnn(-c3ccccc3C)c2C)[C@H]1c1ccccc1` [II-228], in that order: “+++ (≥350)”, over 200%, under 1000 nM and under 1000 nM.
For `COc1ccc(C(C)(C)C)cc1CN[C@H]1[C@H](C(C)(C)C)[C@@H](C(=O)O)N(C(=O)c2c(C)nn(-c3ccccc3)c2C)[C@H]1c1ccccc1` [II-229], in that order: “+++ (≥350)”, over 200%, 1000 to 10000 nM and 1000 to 10000 nM.
The corresponding values for `COc1ccc(C(C)(C)C)cc1CN[C@H]1[C@H](C(C)(C)C)[C@@H](C(=O)O)N(C(=O)c2ccc3c(c2)OCCCO3)[C@H]1c1ccccc1` [II-230] are “+++ (≥350)”, 100 to 200%, 1000 to 10000 nM and 1000 to 10000 nM.
Take `COc1ccc(C(C)(C)C)cc1CN[C@H]1[C@H](C(C)(C)C)[C@@H](C(=O)O)N(C(=O)c2onc3ccccc23)[C@H]1c1ccccc1` [II-231]: the “Maximum % activity (with co-corrector)” value is recorded as “+++ (≥350)” and the Emax was 100 to 200%. In addition, the concentration giving a half-maximal response (EC50) under setting [1] is under 1000 nM. The half-maximal effective concentration (EC50) under setting [2] was under 1000 nM.
